Patent US20180168161A1, “MICROPROPAGATION OF BLACK COHOSH” (North Carolina Agricultural and Technical State University, priority 2016, published 2018)

Tested on: black cohosh plantlets
Test: Rooting of black cohosh cultures and growth of the micropropagated plantlets in soil
Type: in vivo, Cimicifuga racemosa/Actaea racemose L.
Conditions: rooting 4 weeks, 60% shade
Procedure: All cultures described herein were transferred onto fresh media every 4 weeks. When indicated as such, the cultures were maintained in a plant tissue culture grade growth chamber under a 16-hour photoperiod (e.g. 16 hours of light per a 24 hour period) with a photo flux density of 37.6±4.8 μmol s^−1m^−2 light per day provided by cool white fluorescent tubes at 23±0.1° C., unless otherwise noted. As employed herein, MS supplemented base medium is at a pH of between about 5.4 and 5.8, supplemented with about 0.7% agar and about 3% sucrose, optionally with one or more plant growth regulators as disclosed herein. The pH of the medium is adjusted with a base, such as 1N KOH, and/or an acid, such as 1N HCl, before the agar is added. The supplemented medium is sterilized by autoclaving at about 120° C. and about 106 kPa for about 20 minutes. A first half of the cultures from Example 1B were moved to fresh MS supplemented base medium containing IBA (1.0 mg/1) and kept in a growth chamber under 16 hours light conditions per day for 4 weeks for rooting of the plantlets. See also the bottom row of FIG. 1, which refers to rooting for 4 weeks. […] A second half of the cultures from Example 1B were moved to fresh MS supplemented base medium containing NAA (0.1 mg/1) and kept in a growth chamber under 16 hours light conditions per day for 4 weeks for rooting of the plantlets. […]

Compound: O=C(O)CCCc1c[nH]c2ccccc12 [IBA, indole-3-butyric acid]
- plantlet growth in soil after rooting (shoots proliferated in BA+NAA (Example 1B)): grew vigorously with normal morphology
- plantlet growth in soil after rooting (shoots proliferated in kinetin+NAA (Example 1C)): grew vigorously
